From ChEMBL document CHEMBL4359915, “Design, synthesis and biological evaluation of novel diazaspiro[4.5]decan-1-one derivatives as potential chitin synthase inhibitors and antifungal agents” (Eur J Med Chem, 2019)
Converted amounts (≈) assume the structure as drawn.

Assays:
Candida albicans [1] = assay: Antifungal activity against Candida albicans ATCC 76615 assessed as growth inhibition measured after 24 hrs by two-fold broth dilution method; assay type: functional; settings: ATCC 76615, 24 h
Aspergillus fumigatus = assay: Antifungal activity against Aspergillus fumigatus GIMCC 3.19 assessed as growth inhibition measured after 24 hrs by two-fold broth dilution method; assay type: functional; settings: GIMCC 3.19, 24 h
Candida albicans [2] = assay: Antifungal activity against Candida albicans ATCC 90023 assessed as growth inhibition measured after 24 hrs by two-fold broth dilution method; assay type: functional; settings: ATCC 90023, 24 h
Cryptococcus neoformans = assay: Antifungal activity against Cryptococcus neoformans ATCC 32719 assessed as growth inhibition measured after 24 hrs by two-fold broth dilution method; assay type: functional; settings: ATCC 32719, 24 h
Aspergillus flavus = assay: Antifungal activity against Aspergillus flavus ATCC 16870 assessed as growth inhibition measured after 24 hrs by two-fold broth dilution method; assay type: functional; settings: ATCC 16870, 24 h
Candida tropicalis = assay: Inhibition of Candida tropicalis ATCC 750 chitin synthase at 300 ug/ml using UDP-GlcNAc as substrate relative to control
Staphylococcus aureus [3] = assay: Antibacterial activity against methicillin-resistant Staphylococcus aureus N315 assessed as growth inhibition measured after 24 hrs by two-fold broth dilution method; assay type: functional; settings: N315, 24 h
Staphylococcus aureus [4] = assay: Antibacterial activity against Staphylococcus aureus ATCC 25923 assessed as growth inhibition measured after 24 hrs by two-fold broth dilution method; assay type: functional; settings: ATCC 25923, 24 h
Bacillus spizizenii = assay: Antibacterial activity against Bacillus subtilis ATCC 6633 assessed as growth inhibition measured after 24 hrs by two-fold broth dilution method; assay type: functional; settings: ATCC 6633, 24 h
Escherichia coli = assay: Antibacterial activity against Escherichia coli JM 109 assessed as growth inhibition measured after 24 hrs by two-fold broth dilution method; assay type: functional; settings: JM 109, 24 h
Pseudomonas aeruginosa = assay: Antibacterial activity against Pseudomonas aeruginosa ATCC 9027 assessed as growth inhibition measured after 24 hrs by two-fold broth dilution method; assay type: functional; settings: ATCC 9027, 24 h
[5] = Inhibition of Candida tropicalis ATCC 750 chitin synthase using UDP-GlcNAc as substrate
Proteus vulgaris = assay: Antibacterial activity against Bacillus proteus ATCC 8427 assessed as growth inhibition measured after 24 hrs by two-fold broth dilution method; assay type: functional; settings: ATCC 8427, 24 h

Row | Structure (SMILES) | MIC (Candida albicans [1]) [µM] | MIC (Aspergillus fumigatus) [µM] | MIC (Candida albicans [2]) [µM] | MIC (Cryptococcus neoformans) [µM] | MIC (Aspergillus flavus) [µM] | inhibition (Candida tropicalis) [%] | MIC (Staphylococcus aureus [3]) [µM] | MIC (Staphylococcus aureus [4]) [µM] | MIC (Bacillus spizizenii) [µM] | MIC (Escherichia coli) [µM] | MIC (Pseudomonas aeruginosa) [µM] | IC50 [5] [µM] | MIC (Proteus vulgaris) [µM]
1 | OC(Cn1cncn1)(Cn1cncn1)c1ccc(F)cc1F [FLUCONAZOLE] | 52 (≈ 15.9 µg/mL) | 104 (≈ 31.9 µg/mL) | 104 (≈ 31.9 µg/mL) | 52 (≈ 15.9 µg/mL) | 209 (≈ 64 µg/mL) |  |  |  |  |  |  |  | 
2 | O=C(Nc1ccc(Br)cc1)[C@H](O)[C@@H](O)C(=O)N1CCC2(CCNC2=O)CC1 | 290 (≈ 128 µg/mL) | 1160 (≈ 511 µg/mL) | 290 (≈ 128 µg/mL) | 1160 (≈ 511 µg/mL) | 150 (≈ 66 µg/mL) | 74.7 | 1160 (≈ 511 µg/mL) | 580 (≈ 255 µg/mL) | 580 (≈ 255 µg/mL) | 1160 (≈ 511 µg/mL) | 290 (≈ 128 µg/mL) | 180 | 1160 (≈ 511 µg/mL)
3 | O=C(Nc1ccccc1Cl)[C@H](O)[C@@H](O)C(=O)N1CCC2(CCNC2=O)CC1 | 1290 (≈ 511 µg/mL) | 320 (≈ 127 µg/mL) | 1290 (≈ 511 µg/mL) | 320 (≈ 127 µg/mL) | 1290 (≈ 511 µg/mL) | 85.5 | 320 (≈ 127 µg/mL) | 160 (≈ 63.3 µg/mL) | 650 (≈ 257 µg/mL) | 320 (≈ 127 µg/mL) | 320 (≈ 127 µg/mL) | 140 | 160 (≈ 63.3 µg/mL)
4 | O=C(Nc1ccc(F)c(F)c1)[C@H](O)[C@@H](O)C(=O)N1CCC2(CCNC2=O)CC1 | 640 (≈ 254 µg/mL) | 1290 (≈ 513 µg/mL) | 320 (≈ 127 µg/mL) | 80 (≈ 31.8 µg/mL) | 320 (≈ 127 µg/mL) | 36.7 | 1290 (≈ 513 µg/mL) | 640 (≈ 254 µg/mL) | 640 (≈ 254 µg/mL) | 640 (≈ 254 µg/mL) | 320 (≈ 127 µg/mL) |  | 640 (≈ 254 µg/mL)
5 | CN[C@@H]1[C@H](O[C@H]2[C@H](O[C@H]3[C@H](O)[C@@H](O)[C@H](N=C(N)N)[C@@H](O)[C@@H]3N=C(N)N)O[C@@H](C)[C@]2(O)C=O)O[C@@H](CO)[C@H](O)[C@H]1O [STREPTOMYCIN] |  |  |  |  |  |  | 55 (≈ 32 µg/mL) | 28 (≈ 16.3 µg/mL) | 28 (≈ 16.3 µg/mL) | 14 (≈ 8.14 µg/mL) | 7 (≈ 4.07 µg/mL) |  | 14 (≈ 8.14 µg/mL)
6 | O=C(Nc1ccc(Cl)cc1Cl)[C@H](O)[C@@H](O)C(=O)N1CCC2(CCNC2=O)CC1 | 590 (≈ 254 µg/mL) | 590 (≈ 254 µg/mL) | 300 (≈ 129 µg/mL) | 590 (≈ 254 µg/mL) | 300 (≈ 129 µg/mL) | 82.8 | 150 (≈ 64.5 µg/mL) | 590 (≈ 254 µg/mL) | 300 (≈ 129 µg/mL) | 150 (≈ 64.5 µg/mL) | 300 (≈ 129 µg/mL) | 130 | 150 (≈ 64.5 µg/mL)
7 | O=C(Nc1ccc([N+](=O)[O-])cc1)[C@H](O)[C@@H](O)C(=O)N1CCC2(CCNC2=O)CC1 | 1260 (≈ 512 µg/mL) | 310 (≈ 126 µg/mL) | 1260 (≈ 512 µg/mL) | 1260 (≈ 512 µg/mL) | 1260 (≈ 512 µg/mL) | 58.4 | 630 (≈ 256 µg/mL) | 160 (≈ 65 µg/mL) | 1260 (≈ 512 µg/mL) | 310 (≈ 126 µg/mL) | 630 (≈ 256 µg/mL) | 390 | 310 (≈ 126 µg/mL)
8 | O=C(Nc1ccc(F)cc1)[C@H](O)[C@@H](O)C(=O)N1CCC2(CCNC2=O)CC1 | 340 (≈ 129 µg/mL) | 340 (≈ 129 µg/mL) | 340 (≈ 129 µg/mL) | 670 (≈ 254 µg/mL) | 340 (≈ 129 µg/mL) | 36.7 | 340 (≈ 129 µg/mL) | 670 (≈ 254 µg/mL) | 340 (≈ 129 µg/mL) | 670 (≈ 254 µg/mL) | 1350 (≈ 512 µg/mL) |  | 340 (≈ 129 µg/mL)
9 | COc1ccccc1NC(=O)[C@H](O)[C@@H](O)C(=O)N1CCC2(CCNC2=O)CC1 | 650 (≈ 254 µg/mL) | 330 (≈ 129 µg/mL) | 40 (≈ 15.7 µg/mL) | 330 (≈ 129 µg/mL) | 650 (≈ 254 µg/mL) | 20.4 | 330 (≈ 129 µg/mL) | 1310 (≈ 513 µg/mL) | 650 (≈ 254 µg/mL) | 650 (≈ 254 µg/mL) | 650 (≈ 254 µg/mL) |  | 330 (≈ 129 µg/mL)
10 | COc1cccc(NC(=O)[C@H](O)[C@@H](O)C(=O)N2CCC3(CCNC3=O)CC2)c1 | 160 (≈ 62.6 µg/mL) | 330 (≈ 129 µg/mL) | 650 (≈ 254 µg/mL) | 330 (≈ 129 µg/mL) | 650 (≈ 254 µg/mL) | 47.5 | 650 (≈ 254 µg/mL) | 650 (≈ 254 µg/mL) | 330 (≈ 129 µg/mL) | 650 (≈ 254 µg/mL) | 650 (≈ 254 µg/mL) |  | 650 (≈ 254 µg/mL)
